Experimental data: publication PMC9653166 (Journal of medicinal chemistry, 2022)
Several values for one entry are separate records, joined by “and”; a condition that tells them apart may be missing. Equal entries are not always repeated. Entries after “also recorded” stand apart in the source; their conditions may differ.

How the values were obtained:
Sirt5 [1] = target: T1, Sirt5 (Homo sapiens, UniProt Q9NXA8); experiment: Coupled enzymatic desuccinylation assay, Sirt5 with CPS1-succK537 peptide; assay type: biochemical; conditions: for Effect on Sirt5 activity (in words): coupled assay, 10 and 100 μM compound
T1 sequence (Q9NXA8 34-302): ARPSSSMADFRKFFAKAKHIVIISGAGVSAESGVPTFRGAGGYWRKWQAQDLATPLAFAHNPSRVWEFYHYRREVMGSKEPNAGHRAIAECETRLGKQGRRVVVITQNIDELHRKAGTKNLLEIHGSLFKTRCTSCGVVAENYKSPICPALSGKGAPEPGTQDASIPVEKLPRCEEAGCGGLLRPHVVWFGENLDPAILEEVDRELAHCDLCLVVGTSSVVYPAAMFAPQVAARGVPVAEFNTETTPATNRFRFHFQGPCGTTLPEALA

Sirt2 = target: T2, Sirt2 (Homo sapiens, UniProt Q8IXJ6); experiment: Coupled enzymatic deacetylation assay, Sirt2 with α-tubulin-acK25 peptide; assay type: biochemical; conditions: for Effect on Sirt2 activity (in words): coupled assay, 10 and 100 μM compound; for Sirt2 activation (α-tubulin-acK25 deacetylation): 100 μM compound
T2 sequence (Q8IXJ6 43-356): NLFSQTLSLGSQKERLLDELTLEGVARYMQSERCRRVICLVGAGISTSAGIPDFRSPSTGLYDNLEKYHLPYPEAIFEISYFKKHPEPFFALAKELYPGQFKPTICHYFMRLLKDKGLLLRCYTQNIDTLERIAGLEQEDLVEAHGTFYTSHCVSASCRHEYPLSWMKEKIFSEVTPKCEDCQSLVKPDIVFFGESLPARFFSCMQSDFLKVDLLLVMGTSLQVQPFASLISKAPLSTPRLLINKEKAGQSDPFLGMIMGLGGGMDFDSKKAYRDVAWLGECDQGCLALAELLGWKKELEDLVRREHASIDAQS

GDH = GDH activity assay in MDA-MB-231 cell lysates; assay type: cell-based, human; conditions: wild-type MDA-MB-231 cells, 50 μM, 4 or 24 h
glutaminase (GLS) = experiment: GLS activity assay in MDA-MB-231 cell lysates; assay type: cell-based, human; conditions: MDA-MB-231 cells, 50 μM, 4 and 24 h
MDA-MB-231 cells = experiment: Ammonia level assay, MDA-MB-231 cells; assay type: cell-based, human; conditions: 50 μM, 4 and 24 h
Sirt3 [2] = target: T3, Sirt3 (Homo sapiens, UniProt Q9NTG7); experiment: Coupled enzymatic deacetylation assay, Sirt3 with ACS2-acK642 peptide; assay type: biochemical; conditions: for Effect on Sirt3 activity (in words): coupled assay, ACS2 peptide, 10 and 100 μM compound
T3 sequence (Q9NTG7 114-380): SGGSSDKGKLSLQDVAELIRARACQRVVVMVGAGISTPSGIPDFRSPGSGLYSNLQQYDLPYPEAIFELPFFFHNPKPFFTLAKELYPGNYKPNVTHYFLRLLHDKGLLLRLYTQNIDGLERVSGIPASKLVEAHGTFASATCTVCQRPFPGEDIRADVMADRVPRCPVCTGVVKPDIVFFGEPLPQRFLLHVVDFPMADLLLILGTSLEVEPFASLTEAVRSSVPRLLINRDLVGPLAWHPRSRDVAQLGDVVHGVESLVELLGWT

Sirt3 [3] = target: T4, Sirt3 (Homo sapiens, UniProt Q9NTG7); experiment: Cellular SIRT3 deacetylase activity assay; assay type: cell-based; conditions: MDA-MB-231 cells, 50 and 100 μM, 3 h
T4 sequence (Q9NTG7 1-399): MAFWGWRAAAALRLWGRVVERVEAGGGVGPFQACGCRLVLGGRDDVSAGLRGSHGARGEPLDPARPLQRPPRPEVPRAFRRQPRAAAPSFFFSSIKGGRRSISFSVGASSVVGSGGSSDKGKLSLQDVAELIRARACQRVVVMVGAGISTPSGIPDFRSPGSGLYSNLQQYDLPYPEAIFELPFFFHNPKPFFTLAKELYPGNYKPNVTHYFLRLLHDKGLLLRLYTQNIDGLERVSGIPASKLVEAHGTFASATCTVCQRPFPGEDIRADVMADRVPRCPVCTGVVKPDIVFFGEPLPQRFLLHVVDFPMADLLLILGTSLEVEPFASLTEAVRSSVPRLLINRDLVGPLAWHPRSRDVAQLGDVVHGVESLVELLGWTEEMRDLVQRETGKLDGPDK

MnSOD-Lys68 acetylation = MnSOD-Lys68 acetylation Western blot in MDA-MB-231 cells; assay type: cell-based, human
GDH acetylation = experiment: GDH immunoprecipitation and Lys acetylation Western blot, MDA-MB-231 cells; assay type: cell-based, human; conditions: 50 μM
[4] = tested on: mouse embryonic fibroblasts (MEFs); experiment: Mitochondrial mass by FACS; assay type: cell-based; conditions: 25 μM, 24 h
Sirt5 [5] = target: T5, Sirt5 (Homo sapiens, UniProt Q9NXA8); experiment: PDC deacylation assay: PDHA1 desuccinylation by recombinant Sirt5; assay type: biochemical; conditions: 100 μM compound, PDHA1 from porcine heart tissue
T5 sequence (Q9NXA8 37-310): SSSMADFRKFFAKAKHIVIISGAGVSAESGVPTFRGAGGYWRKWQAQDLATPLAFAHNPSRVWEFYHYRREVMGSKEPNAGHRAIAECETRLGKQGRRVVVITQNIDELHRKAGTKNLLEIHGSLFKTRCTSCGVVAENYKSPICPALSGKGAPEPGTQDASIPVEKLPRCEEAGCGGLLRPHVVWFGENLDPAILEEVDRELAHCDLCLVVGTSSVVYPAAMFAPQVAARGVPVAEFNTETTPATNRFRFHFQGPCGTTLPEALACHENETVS

Compound: CCOC(=O)C1=CN(Cc2ccccc2)C=C(C(=O)OCC)C1c1ccc(-c2ccccc2)cc1 [Compound 2]
- Effect on Sirt5 activity (in words) (Sirt5 [1]): Sirt5 activation

Compound: CCOC(=O)C1=CN(C(=O)c2cc(OC)c(OC)c(OC)c2)C=C(C(=O)OCC)C1c1ccoc1 [Compound 41, Diethyl 4-(Furan-3-yl)-1-(3,4,5-trimethoxybenzoyl)-1,4-dihydropyridine-3,5-dicarboxylate]
- Effect on Sirt2 activity (in words) (Sirt2): smaller effects

Compound: CCOC(=O)C1=CN(C(=O)c2cc(OC)c(OC)c(OC)c2)C=C(C(=O)OCC)C1c1ccco1 [Compound 40, Diethyl 4-(Furan-2-yl)-1-(3,4,5-trimethoxybenzoyl)-1,4-dihydropyridine-3,5-dicarboxylate]
- Effect on Sirt2 activity (in words) (Sirt2): smaller effects

Compound: CCOC(=O)C1=CN(C(=O)c2ccccc2)C=C(C(=O)OCC)C1c1cccc(C)c1 [Compound 16]
- GDH activity in cell lysates (GDH): no significant changes in GDH activity
- GLS activity in cell lysates (glutaminase (GLS)): no such effects
- Ammonia accumulation (MDA-MB-231 cells): no such effects

Compound: CCOC(=O)C1=CN(Cc2ccccc2)C=C(C(=O)OCC)C1c1ccc2ccccc2c1 [Compound 4]
- Sirt5 activation (CPS1-succK537 desuccinylation) (Sirt5 [1]; 10 μM compound): 1.2- to 1.5 fold
- Effect on Sirt5 activity (in words) (Sirt5 [1]): Sirt5 activation

Compound: CCOC(=O)C1=CN(Cc2ccccc2)C=C(C(=O)OCC)C1c1ccco1 [Compound 5]
- Sirt2 activation (α-tubulin-acK25 deacetylation) (Sirt2): less than 1.5 fold
- Effect on Sirt2 activity (in words) (Sirt2): weak Sirt2 activation

Compound: CCOC(=O)C1=CN(C(=O)c2ccccc2)C=C(C(=O)OCC)C1c1ccc(OC)cc1 [Compound 20]
- Sirt5 activation (CPS1-succK537 desuccinylation) (Sirt5 [1]; 10 μM compound): 1.2- to 1.5 fold

Compound: CCOC(=O)C1=CN(C(=O)c2ccccc2)C=C(C(=O)OCC)C1c1ccc(C)cc1 [Compound 17]
- Effect on Sirt5 activity (in words) (Sirt5 [1]): specific Sirt5 activation

Compound: CCOC(=O)C1=CN(C(=O)c2ccccc2)C=C(C(=O)OCC)C1c1ccc(Cl)cc1 [Compound 14]
- Sirt5 activation (CPS1-succK537 desuccinylation) (Sirt5 [1]; 10 μM compound): 1.2- to 1.5 fold

Compound: CCOC(=O)C1=CN(C(=O)c2ccccc2)C=C(C(=O)OCC)C1c1ccccc1OC [Compound 18]
- Effect on Sirt5 activity (in words) (Sirt5 [1]): specific Sirt5 activation

Compound: CCOC(=O)C1=CN(Cc2cc(OC)c(OC)c(OC)c2)C=C(C(=O)OCC)C1c1cnc2ccccc2c1 [Compound 26, Diethyl 4-(Quinolin-3-yl)-1-(3,4,5-trimethoxybenzyl)-1,4-dihydropyridine-3,5-dicarboxylate]
- Effect on Sirt3 activity (in words) (Sirt3 [2]): lost their effects towards Sirt3

Compound: CCOC(=O)C1=CN(Cc2ccccc2)C=C(C(=O)OCC)C1c1cccc2ccccc12 [Compound 3]
- Effect on Sirt5 activity (in words) (Sirt5 [1]): Sirt5 activation

Compound: CCOC(=O)C1=CN(C(=O)c2cnccn2)C=C(C(=O)OCC)C1c1ccccc1 [Compound 23]
- Sirt5 activation (CPS1-succK537 desuccinylation) (Sirt5 [1]; 10 μM compound): 1.2- to 1.5 fold
- Sirt5 activation (CPS1-succK537 desuccinylation) (Sirt5 [1]; 100 μM compound): 2- to 3 fold
- Effect on Sirt5 activity (in words) (Sirt5 [1]): specific Sirt5 activation

Compound: CCOC(=O)C1=CN(C(=O)c2ccccc2)C=C(C(=O)OCC)C1c1ccccc1 [Compound 11]
- FdL deacetylation (Sirt3) activity in cell lysates (Sirt3 [3]): significant increase in FdL deacetylation activity
- EC50 (Sirt3 [2]): 100 to 200 µM
- Sirt3 activity (Sirt3 [2]; 100 μM compound): over 300%
- MnSOD-Lys68 acetylation (MnSOD-Lys68 acetylation; MDA-MB-231 cells, 50 μM): decrease in MnSOD-Lys68 acetylation
- MnSOD-Lys68 acetylation (MnSOD-Lys68 acetylation; Sirt3 silenced MDA-MB-231 cells, 16 h): did not decrease MnSOD-Lys68 acetylation
- GDH overall Lys acetylation (GDH acetylation): decreased acetylation levels

Compound: CCOC(=O)C1=CN(Cc2ccccc2)C=C(C(=O)OCC)C1c1cnc2ccccc2c1 [Compound 10]
- Effect on Sirt3 activity (in words) (Sirt3 [2]): Sirt3 activation; also recorded: comparable to the parent compound
- Effect on mitochondrial mass ([4]; Sirt3 knock-out MEFs): no significant compound effect
- Increase of mitochondrial mass ([4]; wild-type MEFs): about 2.5 fold

Compound: CCOC(=O)C1=CN(Cc2ccccc2)C=C(C(=O)OCC)C1c1nccs1 [Compound 7]
- Effect on Sirt3 activity (in words) (Sirt3 [2]): Sirt3 activation; also recorded: comparable to the parent compound

Compound: CCOC(=O)C1=CN(C(=O)c2cnc3ccccc3n2)C=C(C(=O)OCC)C1c1ccccc1 [Compound 24]
- Effect on Sirt3 activity (in words) (Sirt3 [2]): comparable to the parent compound
- Sirt5 activation (CPS1-succK537 desuccinylation) (Sirt5 [1]; 10 μM compound): 1.2- to 1.5 fold
- Sirt5 activation (CPS1-succK537 desuccinylation) (Sirt5 [1]; 100 μM compound): 2- to 3 fold and 2.5 fold

Compound: CCOC(=O)C1=CN(Cc2ccccc2)C=C(C(=O)OCC)C1c1cc2ccccc2s1 [Compound 9]
- Sirt5 activation (CPS1-succK537 desuccinylation) (Sirt5 [1]; 100 μM compound): 2- to 3 fold
- Effect on Sirt5 activity (in words) (Sirt5 [1]): Sirt5 activation

Compound: CCOC(=O)C1=CN(C(=O)c2ccc3ccccc3c2)C=C(C(=O)OCC)C1c1ccccc1 [Compound 22]
- Sirt2 activation (α-tubulin-acK25 deacetylation) (Sirt2): less than 1.5 fold
- Effect on Sirt3 activity (in words) (Sirt3 [2]): comparable to the parent compound

Compound: CCOC(=O)C1=CN(C(=O)c2ccccc2)C=C(C(=O)OCC)C1c1ccco1 [Compound 27, Diethyl 1-Benzoyl-4-(furan-2-yl)-1,4-dihydropyridine-3,5-dicarboxylate]
- Sirt5 activation (CPS1-succK537 desuccinylation) (Sirt5 [1]; 100 μM compound): about 2 fold

Compound: CCOC(=O)C1=CN(C(=O)c2ccccc2)C=C(C(=O)OCC)C1c1ccoc1 [Compound 28, Diethyl 1-Benzoyl-4-(furan-3-yl)-1,4-dihydropyridine-3,5-dicarboxylate]
- Sirt5 activation (CPS1-succK537 desuccinylation) (Sirt5 [1]; 100 μM compound): 3- to 3.5 fold

Compound: CCOC(=O)C1=CN(C(=O)c2cccc3ccccc23)C=C(C(=O)OCC)C1c1ccccc1 [Compound 21]
- Sirt5 activation (CPS1-succK537 desuccinylation) (Sirt5 [1]; 100 μM compound): 2- to 3 fold
- Effect on Sirt5 activity (in words) (Sirt5 [1]): specific Sirt5 activation

Compound: CCOC(=O)C1=CN(Cc2cc(OC)c(OC)c(OC)c2)C=C(C(=O)OCC)C1c1ccccc1 [Compound 25, Diethyl 4-Phenyl-1-(3,4,5-trimethoxybenzyl)-1,4-dihydropyridine-3,5-dicarboxylate]
- Effect on Sirt3 activity (in words) (Sirt3 [2]): lost their effects towards Sirt3

Compound: CCOC(=O)C1=CN(C(=O)c2ccccc2)C=C(C(=O)OCC)C1c1cccc(Cl)c1 [Compound 13]
- Sirt5-dependent desuccinylation of PDHA1 (Sirt5 [5]): clearly enhanced
- Sirt5 activation (CPS1-succK537 desuccinylation) (Sirt5 [1]; 10 μM compound): 1.2- to 1.5 fold

Compound: CCOC(=O)C1=CN(C(=O)c2cc(OC)c(OC)c(OC)c2)C=C(C(=O)OCC)C1c1cccc(N)c1 [Compound 38, Diethyl 4-(3-Aminophenyl)-1-(3,4,5-trimethoxybenzoyl)-1,4-dihydropyridine-3,5-dicarboxylate]
- Sirt2 activation (α-tubulin-acK25 deacetylation) (Sirt2): 2 fold
- Sirt5 activation (CPS1-succK537 desuccinylation) (Sirt5 [1]; 100 μM compound): 3- to 3.5 fold and 3.5 fold
